Experiment: Superoxide anion radical scavenging activity (PMS/NADPH/NBT)
Format: biochemical
Settings: 100 μM (stated for compound 3)
Method: The compounds have been tested to scavenge superoxide anion radicals. However, no results were recorded under the experimental conditions.
The superoxide anion producing system was set up by mixing PMS, NADPH, and air oxygen. The production of superoxide anion was estimated by the nitrobluetetrazole NBT method. The reaction mixture containing compounds, 3 μM PMS, 78 μM NADPH, and 25 μM NBT in […] phosphate buffer pH 7.4 was incubated for 2 min at room temperature and the absorption was measured at 560 nm against a blank containing PMS. The tested compounds were pre-incubated for 2 min before adding NADPH. Caffeic acid was used as an appropriate standard (76%).

With O=C(O)/C=C/c1ccc(O)c(O)c1 [Caffeic acid, reference compound] the “superoxide anion scavenging activity” value was 76%.

— paper PMC6930570, “2-Arylidene-1-indandiones as Pleiotropic Agents with Antioxidant and Inhibitory Enzymes Activities” (Molecules, 2019)
